≈ marks a conversion by molar mass, not a printed value.
What was measured:
[1] = test system: Vero; assay: Cytotoxicity against african green monkey Vero cells after 72 hrs by MTT assay; assay type: cell-based; conditions: Chlorocebus sabaeus
[2] = test system: Mycobacterium tuberculosis; assay: Antitubercular activity against Mycobacterium tuberculosis H37Rv by two fold serial dilution method; assay type: functional
[3] = Safety index, ratio of IC50 for african green monkey Vero cells to MIC for Mycobacterium tuberculosis H37Rv; assay type: toxicity, cell-based

COc1cc2c(cc1OC)C1=NN(C(=O)Nc3ccc([N+](=O)[O-])cc3)C(c3ccccc3)C1C2 (stereo not drawn)
IC50 [1]: 51.1 µM | MIC [2]: 6.81 µM (≈ 3.12 µg/mL)

COc1cc2c(cc1OC)C1=NN(C(=O)Nc3ccc([N+](=O)[O-])cc3)C(c3ccc(F)cc3)C1C2 (stereo not drawn)
IC50 [1]: 94.8 µM | MIC [2]: 3.16 µM (≈ 1.51 µg/mL)

COc1ccc(C2C3Cc4cc(OC)c(OC)cc4C3=NN2C(=O)Nc2ccc([N+](=O)[O-])cc2)cc1OC (stereo not drawn)
MIC [2]: 12.1 µM (≈ 6.25 µg/mL)

COc1ccc(C2C3Cc4cc(OC)c(OC)cc4C3=NN2C(=O)Nc2ccc(Cl)cc2)cc1OC (stereo not drawn)
MIC [2]: 9.8 µM (≈ 4.98 µg/mL)

COc1cc2c(cc1OC)C1=NN(C(N)=O)C(c3ccccc3)C1C2 (stereo not drawn)
MIC [2]: 11.8 µM (≈ 3.99 µg/mL)

COc1cc2c(cc1OC)C1=NN(C(=O)Nc3ccc(Cl)cc3)C(c3ccccc3)C1C2 (stereo not drawn)
IC50 [1]: > 139 µM | MIC [2]: 6.97 µM (≈ 3.12 µg/mL)

COc1cc2c(cc1OC)C1=NN(C(N)=O)C(c3ccccc3Cl)C1C2 (stereo not drawn)
MIC [2]: 10.8 µM (≈ 4 µg/mL)

COc1ccc(C2C3Cc4cc(OC)c(OC)cc4C3=NN2C(=O)Nc2ccc(Cl)cc2)cc1 (stereo not drawn)
MIC [2]: 10.5 µM (≈ 5 µg/mL)

COc1ccc(C2C3Cc4cc(OC)c(OC)cc4C3=NN2C(=O)Nc2ccc([N+](=O)[O-])cc2)cc1 (stereo not drawn)
MIC [2]: 12.8 µM (≈ 6.24 µg/mL)

COc1ccc(C2C3Cc4cc(OC)c(OC)cc4C3=NN2C(N)=O)cc1 (stereo not drawn)
MIC [2]: 10.9 µM (≈ 3.99 µg/mL)

COc1ccc(C2C3Cc4cc(OC)c(OC)cc4C3=NN2C(N)=O)cc1OC (stereo not drawn)
MIC [2]: 10.1 µM (≈ 3.99 µg/mL)

COc1cc2c(cc1OC)C1=NN(C(N)=O)C(c3ccncc3)C1C2 (stereo not drawn)
MIC [2]: 11.8 µM (≈ 3.99 µg/mL)

COc1cc2c(cc1OC)C1=NN(C(=O)Nc3ccc(Cl)cc3)C(c3ccncc3)C1C2 (stereo not drawn)
IC50 [1]: > 139 µM | MIC [2]: 6.96 µM (≈ 3.12 µg/mL)

COc1cc2c(cc1OC)C1=NN(C(=O)Nc3ccc([N+](=O)[O-])cc3)C(c3ccccc3Cl)C1C2 (stereo not drawn)
MIC [2]: 12.7 µM (≈ 6.25 µg/mL)

NNC(=O)c1ccncc1 [ISONIAZID]
IC50 [1]: > 456 µM | MIC [2]: 0.56 µM (≈ 0.0768 µg/mL)

COc1cc2c(cc1OC)C1=NN(C(N)=O)C(c3ccc(F)cc3)C1C2 (stereo not drawn)
IC50 [1]: 177 µM | MIC [2]: 8.44 µM (≈ 3 µg/mL)

COc1cc2c(cc1OC)C1=NN(C(=O)Nc3ccc([N+](=O)[O-])cc3)C(c3ccncc3)C1C2 (stereo not drawn)
IC50 [1]: 68 µM | MIC [2]: 6.8 µM (≈ 3.12 µg/mL)

COc1cc2c(cc1OC)C1=NN(C(=O)Nc3ccc(Cl)cc3)C(c3ccc(F)cc3)C1C2 (stereo not drawn)
IC50 [1]: > 134 µM | MIC [2]: 0.83 µM (≈ 0.387 µg/mL) | selectivity ratio [3]: > 161

COc1cc2c(cc1OC)C1=NN(C(=O)Nc3ccc(Cl)cc3)C(c3ccccc3Cl)C1C2 (stereo not drawn)
MIC [2]: 13.9 µM (≈ 6.71 µg/mL)
